Source: patent publication US20150231109A1, “COMBINATIONS (CATECHINS AND METHOTREXATE) FOR USE IN THE TREATMENT OF MELANOMAS” (UNIVERSIDAD DE MURCIA, priority 2012, published 2015)

What was measured:
[1] = test system: MCF7; test: HPLC/MS/MS intracellular levels of MTX in MCF7; type: cell-based; settings: MCF7, same MTX treatment (24 h, 1 μM)
[2] = test system: E2F1; test: MALDI-TOF mass spectroscopy of immunoprecipitated E2F1 tryptic digests from SK-MEL-28 cells; type: cell-based, human; settings: SK-MEL-28, 24 h, normalized to internal matrix control
Experimental: SK-MEL-28 whole cell lysates were immunoprecipitated as described above but with two variations. First, the lysis and dilution buffers contained 2.5 μM trichostatin (a potent deacetylase inhibitor) and 20 μM trans-2-phenylcyclo-propylamine (an irreversible inhibitor of lysine-specific demethylase 1, LSD1). Second, the E2F1 antibody was covalently coupled to Dynabeads® (Invitrogen). After immunoprecipitation and elution, bound proteins were digested with trypsin according to standard procedures (Shevchenko). Data were recorded and processed with Agilent MassHunter Workstation Software for obtaining the Peptide Mass Fingerprint (PMF). The PMF result mass spectra were searched against the E2F1 protein sequence with carbamidomethylation of cysteine as fixed modification and methylation and acetylation of lysine residues, oxidation of methionine residues and phosphorylation of serine residues as variable modifications. Peptide mass tolerance was set to 50 ppm and a maximum of three missed cleavages was considered.

[3] = test system: SK-MEL-28 cells; test: Proliferation assay, SK-MEL-28; type: cell-based, human; settings: SK-MEL-28, MTX alone
Experimental: B, Proliferation assays performed of control or MTX/TMECG-treated (10 μM/1 μM) SK-MEL-28 cells. […] For time course assay MTX (1 μM) and TMECG (10 μM) were used. […] Data were obtained in triplicate in two independent experiments. […] H, effects of MTX/TMECG (1 μM/10 μM) on cell number of indicated cell lines. Error bars show mean±SD. […] Error bars show mean±SD.
Melanoma cell lines of human and mouse origin were obtained from ATCC and maintained in the appropriate culture medium supplemented with 10% FBS and antibiotics. Cell viability was evaluated using the 3-(4,5-dimethylthiazol-2-yl)-2,5-diphenyltetrazolium bromide (MTT) cell proliferation assay.

[4] = test system: melanoma (SK-MEL-28, G361) cell lines; test: MTX/TMECG synergy titration (apoptosis), melanoma cell lines; type: cell-based, human; settings: apoptosis after 4 days
Experimental: FIGS. 5A-D. The effects of MTX and/or TMECG on the growth of melanoma cell lines. A, Viability was determined by the MTT assay. Cells were treated with vehicle only (•), 10 μM TMECG ( ), 1 μM MTX (▴) or with a combination of 1 μM MTX+10 μM TMECG (▾). Table outlines p53, BRAF, NRAS, and PTEN status with specific amino acid substitutions. […] B, MTX/TMECG synergy test for melanoma and non-melanoma cancer cells in which drugs were combined in 6×6 matrices where the concentration of one drug was increased along each axis. The lowest concentration was 0 and the highest concentration was chosen close to the IC50 for each drug in each assayed cell line. Apoptosis was determined after 4 days of treatment. Data were obtained in triplicate in two independent experiments. […]
The induction of apoptosis was assessed by performing cytoplasmic histone-associated DNA fragmentation using a kit from Roche Diagnostics (Barcelona, Spain). […] The amount of nucleosomes is photometrically quantified at 405 nm by the peroxidase activity retained in the immunocomplexes. Apoptosis was defined as the specific enrichment of mono- and oligonucleosomes in the cytoplasm and was calculated by dividing the absorbance of treated samples by the absorbance of untreated samples after correcting for the number of cells. […]

## CN(Cc1cnc2nc(N)nc(N)c2n1)c1ccc(C(=O)N[C@@H](CCC(=O)O)C(=O)O)cc1 [MTX, methotrexate]
[1]
  intracellular levels of MTX: 1.3 ± 0.4 pmol/106 cells
[2]; CN 11
  Intensity of phosphorylated (S364) E2F1 peptide: 24
[2]; CN 46
  Intensity of phosphorylated (S31) E2F1 peptide: 12
[2]; CN 49
  Intensity of hyperacetylated (K117,120,125) E2F1 peptide: 329
[2]; CN 64
  Intensity of non-methylated (K185) E2F1 peptide (K)NHIQWLGSHTTVGVGGR(L): 379
[2]; CN 295
  Intensity of non-phosphorylated (S31) E2F1 peptide: 312
[2]; CN 318
  Intensity of non-phosphorylated (S364) E2F1 peptide: 310
[2]; CN 320
  Intensity of non-acetylated E2F1 peptide (K)SPGEK(S): 20
[2]; CN 325
  Intensity of non-acetylated E2F1 peptide (R)HPGK(G): 16
[2]; CN 355
  Intensity of methylated (K185) E2F1 peptide: 18
[3]
  proliferation: reduced proliferation
[4]
  sensitivity to MTX alone, melanoma versus non-melanoma lines: substantially less sensitive
